We go through 33 compounds from US8232269B2, “Amide compounds useful in therapy” (Pfizer Inc., priority 2008, dated 2012).

Broadly, the Ki is the equilibrium dissociation constant of an inhibitor or competing ligand from its target.

A value given as a limit tells only on which side of the number the result lay.

The test deals with T1, Progesterone Receptor (PR) (Homo sapiens, UniProt P06401).
T1 construct: endogenous in cells; host or cells: T47D human breast mammary carcinoma cells
T1 sequence (P06401 1-933): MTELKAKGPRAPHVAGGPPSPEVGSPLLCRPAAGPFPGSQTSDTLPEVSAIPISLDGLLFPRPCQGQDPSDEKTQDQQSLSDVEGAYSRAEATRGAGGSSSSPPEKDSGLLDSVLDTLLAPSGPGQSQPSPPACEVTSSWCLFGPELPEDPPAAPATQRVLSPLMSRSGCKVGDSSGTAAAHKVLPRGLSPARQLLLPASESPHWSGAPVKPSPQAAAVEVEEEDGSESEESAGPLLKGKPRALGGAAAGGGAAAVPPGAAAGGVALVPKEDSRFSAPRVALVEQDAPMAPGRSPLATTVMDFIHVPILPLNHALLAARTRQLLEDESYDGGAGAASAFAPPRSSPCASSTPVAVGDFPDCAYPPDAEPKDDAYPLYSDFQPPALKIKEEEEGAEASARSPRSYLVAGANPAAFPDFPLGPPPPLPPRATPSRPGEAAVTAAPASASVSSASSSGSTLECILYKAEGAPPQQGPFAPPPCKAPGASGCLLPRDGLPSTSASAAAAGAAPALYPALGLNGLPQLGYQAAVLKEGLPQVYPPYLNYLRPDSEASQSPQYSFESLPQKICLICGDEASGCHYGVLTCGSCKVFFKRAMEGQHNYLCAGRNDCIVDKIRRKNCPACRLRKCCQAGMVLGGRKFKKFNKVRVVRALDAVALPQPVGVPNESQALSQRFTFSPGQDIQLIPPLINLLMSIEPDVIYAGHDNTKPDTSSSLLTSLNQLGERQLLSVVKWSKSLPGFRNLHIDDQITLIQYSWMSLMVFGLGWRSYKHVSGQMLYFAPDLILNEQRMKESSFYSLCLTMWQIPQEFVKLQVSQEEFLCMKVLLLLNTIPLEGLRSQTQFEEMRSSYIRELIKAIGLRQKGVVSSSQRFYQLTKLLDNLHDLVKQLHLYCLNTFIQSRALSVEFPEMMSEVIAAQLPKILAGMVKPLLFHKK
Put plainly: In vitro functional assay for progesterone receptor (PR) antagonists: inhibition of progesterone-induced alkaline phosphatase expression in T47D cells. The settings on record: antagonist format, 5 nM progesterone, Ki calculated from IC50 with the Cheng-Prusoff equation. In kind it is cell-based. In a few lines:
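Antagonist format: T47D cells (8750/well, phenol red-free DMEM + 5% CS-FCS) given half-log compound dilutions plus 5 nM progesterone (final), incubated overnight (≥16 h) at 37 °C. Alkaline phosphatase read by CSPD chemiluminescence after freeze-thaw lysis; 0.1 μM RU-486 final defines minimum.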
With `CCc1c(-c2ccc(C#N)cc2)nn(C(C)C)c1C(=O)NCC1CC1` [Example 110, 3-(4-Cyanophenyl)-N-(cyclopropylmethyl)-4-ethyl-1-isopropyl-1H-pyrazole-5-carboxamide], the inhibitory constant (Ki) is 8.24 nM.
The same measure for `CC(=O)CNC(=O)c1c(C2CC2)c(-c2ccc(C#N)cc2)nn1C(C)C` [Example 61, 3-(4-Cyanophenyl)-4-cyclopropyl-1-isopropyl-N-(2-oxopropyl)-1H-pyrazole-5-carboxamide]: 8.29 nM; for `CCc1c(-c2ccc(C#N)cc2)nn(C(C)CC)c1C(=O)NCC1CC1` (racemic) [Example 101, (+/−)-1-sec-Butyl-3-(4-cyanophenyl)-N-(cyclopropylmethyl)-4-ethyl-1H-pyrazole-5-carboxamide]: 7.67 nM.
As to `CCNC(=O)c1c(C)c(-c2ccc(C#N)c(C)c2)nn1C(C)C` [Example 65, 3-(4-Cyano-3-methylphenyl)-N-ethyl-1-isopropyl-4-methyl-1H-pyrazole-5-carboxamide], the Ki is 3.55 nM.
As for `CC(C)n1nc(-c2ccc(C#N)cc2)c(C2CC2)c1C(=O)NC1CN(C(=O)OC(C)(C)C)C1` [Example 7, tert-Butyl 3-({[3-(4-cyanophenyl)-4-cyclopropyl-1-isopropyl-1H-pyrazol-5-yl]carbonyl}amino)azetidine-1-carboxylate], the Ki is 9.73 nM.
Then `CC(=O)N1CC(NC(=O)c2c(C3CC3)c(-c3ccc(C#N)cc3)nn2C(C)C)C1` [Example 19, N-(1-Acetylazetidin-3-yl)-3-(4-cyanophenyl)-4-cyclopropyl-1-isopropyl-1H-pyrazole-5-carboxamide], with 51.4 nM; and `Cc1cc(-c2nn(C(C)C)c(C(=O)NCC3CC3)c2C)ccc1C#N` [Example 62, 3-(4-Cyano-3-methylphenyl)-N-(cyclopropylmethyl)-1-isopropyl-4-methyl-1H-pyrazole-5-carboxamide], with 3.09 nM.
Regarding `CCNC(=O)c1c(C)c(-c2ccc(C#N)cc2)nn1C1CCOC1` (racemic) [Example 76, 3-(4-Cyanophenyl)-N-ethyl-4-methyl-1-(tetrahydrofuran-3-yl)-1H-pyrazole-5-carboxamide], the Ki was 26.9 nM.
As to `Cc1c(-c2ccc(C#N)cc2)nn(C2CC2)c1C(=O)NCC1CC1` [Example 82, 3-(4-Cyanophenyl)-1-cyclopropyl-N-(cyclopropylmethyl)-4-methyl-1H-pyrazole-5-carboxamide], the Ki is 70.2 nM.
Regarding `Cc1c(-c2ccc(C#N)cc2)nn(C2CC2)c1C(=O)NC[C@H](C)O` [Example 86, 3-(4-Cyanophenyl)-1-cyclopropyl-N-[(2S)-2-hydroxypropyl]-4-methyl-1H-pyrazole-5-carboxamide], the inhibitory constant (Ki) was greater than 137 nM.
Then `Cc1c(-c2ccc(C#N)cc2)nn(C2CCOC2)c1C(=O)NC[C@H](C)O` (single isomer, unassigned) [Example 78 Diast 1], with greater than 242 nM; and `CCc1c(-c2ccc(C#N)cc2)nn(C(C)C)c1C(=O)NC[C@H](C)O` [Example 114, 3-(4-Cyanophenyl)-4-ethyl-N-[(2S)-2-hydroxypropyl]-1-isopropyl-1H-pyrazole-5-carboxamide], with 30.9 nM.
Consider `CCc1c(-c2ccc(C#N)cc2)nn(C(C)CC)c1C(=O)NC(C)C` (racemic) [Example 102, (+/−)-1-sec-Butyl-3-(4-cyanophenyl)-4-ethyl-N-isopropyl-1H-pyrazole-5-carboxamide], for which the inhibition constant (Ki) was 14.7 nM.
As for `CCc1c(-c2ccc(C#N)cc2)nn(C(C)C)c1C(=O)NC` [Example 112, 3-(4-Cyanophenyl)-4-ethyl-1-isopropyl-N-methyl-1H-pyrazole-5-carboxamide], the Ki is 26 nM.
The same measure for `Cc1c(-c2ccc(C#N)cc2)nn(C2CC2)c1C(=O)NC(C)C` [Example 85, 3-(4-Cyanophenyl)-1-cyclopropyl-N-isopropyl-4-methyl-1H-pyrazole-5-carboxamide]: 139 nM; for `CC(C)n1nc(-c2ccc(C#N)cc2)c(C2CC2)c1C(=O)NC(C)(C)CO` [Example 56, 3-(4-Cyanophenyl)-4-cyclopropyl-N-(2-hydroxy-1,1-dimethylethyl)-1-isopropyl-1H-pyrazole-5-carboxamide]: 82.6 nM; for `Cc1cc(-c2nn(C(C)C)c(C(=O)NC[C@H](C)O)c2C#N)ccc1C#N` [Example 124]: 5.93 nM.
With `CC(C)n1nc(-c2ccc(C#N)cc2)c(C2CC2)c1C(=O)NC1CCOC1` (stereo not drawn) [Example 52, 3-(4-Cyanophenyl)-4-cyclopropyl-1-isopropyl-N-(tetrahydrofuran-3-yl)-1H-pyrazole-5-carboxamide], the inhibition constant Ki is 5.7 nM.
Then `CCc1c(-c2ccc(C#N)cc2)nn(C(C)C)c1C(=O)NCC(C)(C)O` [Example 118, 3-(4-Cyanophenyl)-4-ethyl-N-(2-hydroxy-2-methylpropyl)-1-isopropyl-1H-pyrazole-5-carboxamide], with 54.8 nM; and `CC(C)n1nc(-c2ccc(C#N)cc2)c(C2CC2)c1C(=O)N[C@H]1CCOC1=O` [Example 24, 3-(4-Cyanophenyl)-4-cyclopropyl-1-isopropyl-N-[(3S)-2-oxotetrahydrofuran-3-yl]-1H-pyrazole-5-carboxamide], with 19.4 nM; and `CCc1c(-c2ccc(C#N)cc2)nn(C(C)C)c1C(=O)NC(C)C` [Example 117, 3-(4-Cyanophenyl)-4-ethyl-N,1-diisopropyl-1H-pyrazole-5-carboxamide], with 36.4 nM.
For the compound `CCc1c(-c2ccc(C#N)cc2)nn(C(C)C)c1C(=O)NC[C@@H](C)O` [Example 115, 3-(4-Cyanophenyl)-4-ethyl-N-[(2R)-2-hydroxypropyl]-1-isopropyl-1H-pyrazole-5-carboxamide], the Ki is 85 nM.
The same measure for `CCc1c(-c2ccc(C#N)cc2)nn(C(C)CC)c1C(=O)NC` (racemic) [Example 105, (+/−)-1-sec-Butyl-3-(4-cyanophenyl)-4-ethyl-N-methyl-1H-pyrazole-5-carboxamide]: 14.2 nM; for `CC(C)n1nc(-c2ccc(C#N)cc2)c(C2CC2)c1C(=O)NCC1CC1` [Example 49, 3-(4-Cyanophenyl)-4-cyclopropyl-N-(cyclopropylmethyl)-1-isopropyl-1H-pyrazole-5-carboxamide]: 4.94 nM; for `Cc1cc(-c2nn(C(C)C)c(C(=O)NCC(C)(C)O)c2C#N)ccc1C#N` [Example 126]: 10.2 nM.
Then `CCc1c(-c2ccc(C#N)cc2)nn(C(C)C)c1C(=O)NCC(=O)NC` [Example 119, 3-(4-Cyanophenyl)-4-ethyl-1-isopropyl-N-[2-(methylamino)-2-oxoethyl]-1H-pyrazole-5-carboxamide], with greater than 145 nM; and `CC(C)n1nc(-c2ccc(C#N)cc2)c(C2CC2)c1C(=O)NC[C@@H]1CCCO1` [Example 55, 3-(4-Cyanophenyl)-4-cyclopropyl-1-isopropyl-N-[(2S)-tetrahydrofuran-2-ylmethyl]-1H-pyrazole-5-carboxamide], with 13.8 nM.
Take `CC(C)n1nc(-c2ccc(C#N)cc2)c(C2CC2)c1C(=O)NC1CN(S(C)(=O)=O)C1` [Example 18, 3-(4-Cyanophenyl)-4-cyclopropyl-1-isopropyl-N-[1-(methylsulfonyl)azetidin-3-yl]-1H-pyrazole-5-carboxamide]: the Ki was 38.2 nM.
Then `CC(C)n1nc(-c2ccc(C#N)cc2)c(C2CC2)c1C(=O)NC1CNC1` [Example 10, N-Azetidin-3-yl-3-(4-cyanophenyl)-4-cyclopropyl-1-isopropyl-1H-pyrazole-5-carboxamide], with 285 nM.
For `CC(C)NC(=O)c1c(C2CC2)c(-c2ccc(C#N)cc2)nn1C(C)C` [Example 4, 3-(4-Cyano-phenyl)-4-cyclopropyl-N,1-diisopropyl-1H-pyrazole-5-carboxamide], the inhibitory constant (Ki) was 7.06 nM.
Turning to `Cc1c(-c2ccc(C#N)cc2)nn(C2CCOC2)c1C(=O)NC(C)C` (racemic) [Example 77, 3-(4-Cyanophenyl)-N-isopropyl-4-methyl-1-(tetrahydrofuran-3-yl)-1H-pyrazole-5-carboxamide], the inhibition constant (Ki) is 28.2 nM.
On to `CC(C)C(=O)N1CC[C@H](NC(=O)c2c(C3CC3)c(-c3ccc(C#N)cc3)nn2C(C)C)C1` [Example 14, 3-(4-Cyanophenyl)-4-cyclopropyl-N-[(3S)-1-isobutyrylpyrrolidin-3-yl]-1-isopropyl-1H-pyrazole-5-carboxamide], for which the Ki is 302 nM.
The same measure for `CC(C)n1nc(-c2ccc(C#N)cc2)c(C2CC2)c1C(=O)NCC(F)(F)F` [Example 48, 3-(4-Cyanophenyl)-4-cyclopropyl-1-isopropyl-N-(2,2,2-trifluoroethyl)-1H-pyrazole-5-carboxamide]: 5.27 nM.
